Entries after “also recorded” stand apart in the source; their conditions may differ.
How the values were obtained:
[1] = system: SDF1 promoter; assay: SDF1 promoter luciferase reporter assay (pGL3b.SDF1.full) in HMEC-1; format: cell-based, human; conditions: 0.1 mM cobalt chloride, 12 hours, HMEC-1 transfected with pGL3b.SDF1.full
From the text: The 1.4 kb 5′ SDF1 promoter region was cloned into the luciferase reporter vector pGL3-Basic (Promega) generating pGL.SDF1.full. 5′ deletion constructs were generated from pGL.SDF1.full using unique internal restriction sites SmaI/SacI, and XhoI. HBS-only contructs (HBS1, HBS2, or both) were generated by PCR and cloned into pGL3-Promoter (Promega). HBS1 was mutated using the mega-primer method (primers listed below) (Kammann et al., “Rapid Insertional Mutagenesis of DNA by Polymerase Chain Reaction (PCR),” Nucleic Acids Res. 17:5404 (1989), which is hereby incorporated by reference in its entirety). All constructs were sequenced to confirm their identity. Reporter plasmids were co-transfected with a constitutively expressed Renilla luciferase construct (pHRL-TK, Promega) into HMECs using the Genejammer reagent (Stratagene). 48 hours after transfection, cells were incubated in hypoxia or normoxia with and without 0.1 mM cobalt chloride (CoCl2) for 12 hours. Luciferase activity was determined using the Dual Luciferase System (Promega) and data were normalized to Renilla luciferase expression from at least four independent experiments. Co-transfection experiments using plasmids for oxygen […] HIF-1α (HIF-1.ΔODD) and the HIF-1α dominant negative (HIF-1.DN) were compared to control transfections using the appropriate empty vector (pcDNA3.1 and pCEP4, respectively) for each construct. […]

[2] = target: CXCR4 on human endothelial progenitor cells (EPCs) (human) (UniProt P61073); assay: cell-based or functional assay
[3] = system: CXCR4+ EPCs / HUVEC monolayers; assay: Adhesion assay of DiI-labeled CXCR4+ EPCs to HUVEC monolayers; format: cell-based, human; conditions: monolayers pre-coated for 20 minutes with recombinant SDF-1
Description: Confluent HUVEC monolayers were subjected to normoxic or hypoxic culture for 6 hours. Human SDF-1αβ/PBSF (100 ng/ml, Sigma) was added where indicated. DiI-labeled EPCs (5×10^4) in EBM/0.5% FBS were added to each preconditioned monolayer and pre-adhesion fluorescence was measured using a Cytofluor 2320 (Millipore). After 3 hours, nonadherent cells were washed away, and post-adhesion fluorescence was measured. The percentage of adherent
cells was calculated using the following formula: [formula] Results are representative of three independent experiments.
HIF-1α siRNA (Berra et al, “HIF Prolyl-hydroxylase 2 is the Key Oxygen Sensor Setting Low Steady-state Levels of HIF-1α in Normoxia,” Embo. J. 22:4082-4090 (2003), which is hereby incorporated by reference in its entirety) (synthesized by Qiagen) was transfected into HUVECs using RNAiFect (Qiagen) in parallel with Lamin A/C and FITC-labeled control siRNAs according to the manufacturer=3 s protocol. Cells were treated with normoxic or hypoxic conditions starting 24 hours following transfection. Gene expression and adhesion assays were performed at 48 hours.

[4] = system: EPCs; assay: Migration assay (modified transwell) of EPCs; format: cell-based, human; conditions: 6 hour migration period
Description: Migration was studied using a modified transwell assay. EPCs (5×10^4) were seeded onto ChemoTx filters (5.7 mm, 8 μm pore, Neuro Probe) in EBM/0.5% FBS. […] Following the 6 hour migration period, nonmigrating cells were completely wiped from the top surface of the membrane. Migrating cells adherent to the undersurface of the filters were quantified using DAPI staining (Vector) with Kodak 1D software. Results are indicative of four independent experiments.

UniProt P61073, sequence (P61073 whole entry): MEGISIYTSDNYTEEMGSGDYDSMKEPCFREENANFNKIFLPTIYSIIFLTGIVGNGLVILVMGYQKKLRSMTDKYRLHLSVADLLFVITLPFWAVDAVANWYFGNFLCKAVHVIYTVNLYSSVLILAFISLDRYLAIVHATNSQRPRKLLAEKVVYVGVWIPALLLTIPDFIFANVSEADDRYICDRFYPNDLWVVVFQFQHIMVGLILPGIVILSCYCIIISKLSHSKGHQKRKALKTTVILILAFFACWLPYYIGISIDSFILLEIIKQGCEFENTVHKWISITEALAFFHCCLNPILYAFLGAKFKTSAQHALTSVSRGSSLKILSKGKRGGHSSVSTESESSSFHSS

## [Cl][Co][Cl] [cobalt chloride]
[1]
  SDF1-specific luciferase expression: four-fold

## neutralizing CXCR4 antibody (Clone 44716, R&D Systems)
[2]
  EPC migration toward hypoxia-conditioned media after preincubating EPCs with neutralizing CXCR4 antibodies (HM+ab): 175 cells/hpf

## recombinant SDF-1: Recombinant human SDF-1αβ/PBSF (Sigma), chemokine
[3]
  adhesion of CXCR4+ EPCs to normoxic HUVEC monolayers: Increased adhesion; also recorded: adhered more EPCs
[4]
  EPC migration, effect in words: EPC migration increased

— US20060154860A1, “Manipulating stem-progenitor cell trafficking to injured tissue and/or tumors by altering HIF-1 and/or SDF-1 activity” (priority 2004, published 2006)
